From article PMC6934184, “Selective DNA-PKcs inhibition extends the therapeutic index of localized radiotherapy and chemotherapy” (The Journal of Clinical Investigation, 2019)

Biological target: T1, ULK2 (Homo sapiens, UniProt Q8IYT8)
T1 construct: purchased Thermo Fisher Scientific (Life Technologies) SelectScreen
Test: SelectScreen LanthaScreen
Assay type: binding
Details: read-out: % displacement
In short: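 SelectScreen broad panel; activity (Z'LYTE, Adapta) plus binding formats. ATP: Km app for CSF1R Z'LYTE; 10 for CAMK1 Adapta. Readout = % per kinase.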

T1 sequence (Q8IYT8 whole entry): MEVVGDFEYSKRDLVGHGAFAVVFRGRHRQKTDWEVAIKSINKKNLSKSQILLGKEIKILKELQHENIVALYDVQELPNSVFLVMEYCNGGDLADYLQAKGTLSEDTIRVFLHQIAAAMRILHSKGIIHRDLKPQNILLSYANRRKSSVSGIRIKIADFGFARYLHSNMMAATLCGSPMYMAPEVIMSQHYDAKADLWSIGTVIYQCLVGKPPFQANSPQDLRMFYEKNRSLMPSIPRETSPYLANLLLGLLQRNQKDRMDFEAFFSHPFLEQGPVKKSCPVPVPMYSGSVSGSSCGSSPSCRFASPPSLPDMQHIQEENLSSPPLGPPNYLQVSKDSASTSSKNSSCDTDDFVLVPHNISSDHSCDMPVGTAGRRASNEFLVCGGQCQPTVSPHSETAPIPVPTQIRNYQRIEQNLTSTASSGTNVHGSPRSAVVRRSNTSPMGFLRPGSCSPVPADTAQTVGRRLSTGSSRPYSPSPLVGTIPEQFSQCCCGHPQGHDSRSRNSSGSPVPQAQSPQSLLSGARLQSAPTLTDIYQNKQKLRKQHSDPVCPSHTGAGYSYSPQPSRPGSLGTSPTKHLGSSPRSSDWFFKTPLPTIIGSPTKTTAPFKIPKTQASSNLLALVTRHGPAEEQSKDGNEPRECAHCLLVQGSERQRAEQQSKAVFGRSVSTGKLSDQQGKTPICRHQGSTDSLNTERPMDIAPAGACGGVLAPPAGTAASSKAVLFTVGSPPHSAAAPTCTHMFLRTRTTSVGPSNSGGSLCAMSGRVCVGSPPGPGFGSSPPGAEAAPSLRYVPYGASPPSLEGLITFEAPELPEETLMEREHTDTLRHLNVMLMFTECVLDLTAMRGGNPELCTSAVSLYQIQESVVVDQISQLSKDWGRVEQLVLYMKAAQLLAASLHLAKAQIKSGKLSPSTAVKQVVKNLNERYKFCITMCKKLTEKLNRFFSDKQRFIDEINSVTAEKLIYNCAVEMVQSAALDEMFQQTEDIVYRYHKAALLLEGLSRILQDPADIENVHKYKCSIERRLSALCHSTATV

CN(C(=O)CN1CCOCC1)c1ccc2sc3c(-c4cccc5c(=O)cc(N6CC7CCC(C6)O7)oc45)cccc3c2c1 [NU5455]
inhibition at 1 µM: 0.9%
